How the values were obtained:
[1] = system: planktonic or sessile SRB; assay: SRB growth in the culture medium with MIC promoter; type: cell-based, Desulfovibrio desulfuricans (ATCC 7757); settings: culture medium used in this work; repeated experiments
Text: Second, the BCSR theory points to the existence of “MIC promoters.” Guided by this, we have successfully found a class of chemicals that can greatly accelerate BCSR leading to much more severe MIC pitting. […] This discovery leads to a new aspect of MIC monitoring, and a non-biocidal mitigation method that may even allow us to live with corrosive microbes with much reduced MIC pitting when the promoter's MIC acceleration effect is inhibited.
(§1) The BCSR theory indicates a bottleneck in MIC due to SRB. To resolve the bottleneck, an electron carrier or mediator was added as an MIC “promoter” into 100 ml anaerobic vials containing SRB and carbon steel coupons. This MIC promoter is not corrosive by itself. After a week of SRB growth, coupons were examined using SEM and IFM (Infinite Focus Microscopy). Desulfovibrio desulfuricans ATCC7757 was used to represent SRB in this work. […] Liquid medium was deoxygenated using nitrogen sparging. To study the pits on a carbon steel coupon, the coupon surface was cleaned using an acid solution before SEM and IFM.

[2] = system: Desulfovibrio desulfuricans ATCC7757 (SRB) on carbon steel coupons; assay: MIC pitting test: SRB with carbon steel coupons in anaerobic vials, pits examined by SEM and IFM; type: cell-based, Desulfovibrio desulfuricans (ATCC 7757); settings: promoter added to the test medium at a low concentration; C1018 carbon steel coupon, ATCC 1249 medium, 37° C., 7 days; versus no promoter (FIG. 2)
Method: Y-axis is pit depth in microns and x-axis pit position in microns.
as §1

## Cc1cc2nc3c(=O)[nH]c(=O)nc-3n(C[C@H](O)[C@H](O)[C@H](O)CO)c2cc1C [riboflavin]
[1]
  planktonic or sessile SRB growth: did not promote planktonic or sessile SRB growth
[2]
  MIC pit depth: dramatic MIC pit depth increase

Reference: patent US20130008801A1, “METHODS AND COMPOSITIONS FOR APPLICATIONS RELATED TO MICROBIOLOGICALLY INFLUENCED CORROSION” (priority 2010, published 2013)
